Assays:
[1] = test system: non-small cell lung cancer cell line H460; assay: In vitro human cancer cell line cytotoxicity (proliferation) assay in H460, CellTiter-Glo, 72 hours; type: cell-based; settings: H460 cells, DMSO condition (no AKR1C3 inhibitor), read-out: CTG H460: Avg IC50 (nM) [Assay Condition: DMSO]
Summary of the method: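 H460 cells were seeded at 3×10^3 per well and grown 24 h at 37 °C, 5% CO2 before compound addition from 10 mM DMSO stocks. After 72 h further incubation, viability was measured by CellTiter-Glo, and IC50 values in nM were derived from the proliferation data.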

[2] = test system: non-small cell lung cancer cell line H460; assay: H460 proliferation assay in the presence of 3 uM ASP9521 (AKR1C3 specific inhibitor); type: cell-based, human; settings: H460 cells, CellTiter-Glo, 72 hours, in the presence of 3 uM ASP9521 added 4 hours prior to compounds; read-out: CTG H460: Avg IC50 (nM) [Assay Condition: ASP9521]
Summary of the method: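 H460 cells pre-incubated 24 h, then exposed to compounds for 72 h at 37 °C, 5% CO2. Viability read by CellTiter-Glo. ASP9521 (3 uM, AKR1C3 inhibitor) added 4 h before compounds.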

Row | SMILES | IC50 ([1]; Homo sapiens, NCI-H460, 72 h) | IC50 [2] | IC50 [1]
1 | CN1CC(=O)N(c2cccc(Oc3c([N+](=O)[O-])ccc4c3CCC4OP(=O)(N3CC3)N3CC3)c2)CC1=O (stereo not drawn) [Example 122] | 10 to 50 nM | 3090 nM | 
2 | O=[N+]([O-])c1ccc2c(c1Oc1cccc(C(F)(F)F)c1)CCC2OP(=O)(N1CC1)N1CC1 (stereo not drawn) [Example 123] | < 10 nM | 572 nM | 
3 | O=[N+]([O-])c1ccc2c(c1Oc1cccc(OC(F)(F)F)c1)CCC2OP(=O)(N1CC1)N1CC1 (stereo not drawn) [Example 124] | < 10 nM | 547 nM | 
4 | O=[N+]([O-])c1ccc2c(c1Oc1ccccc1)OCCC2OP(=O)(N1CC1)N1CC1 (stereo not drawn) [Example 127, 7-nitro-8-phenoxy-3,4-dihydro-2H-1-benzopyran-4-yl bis(aziridin-1-yl)phosphinate] | 10 to 50 nM | 291 nM | 
5 | CN(C)C(=O)c1cccc(Oc2c([N+](=O)[O-])ccc3c2OCCC3OP(=O)(N2CC2)N2CC2)c1 (stereo not drawn) [Example 128] | < 10 nM | 491 nM | 
6 | CN(C)C(=O)c1cccc(Oc2c([N+](=O)[O-])ccc3c2OCCC3OP(=O)(N2CC2)N2CC2)c1 (stereo not drawn) [Example 129] |  | 982 nM | 10 to 50 nM
7 | O=[N+]([O-])c1ccc2c(c1Oc1ccc(-c3ccc(F)cc3)cc1)OCCC2OP(=O)(N1CC1)N1CC1 (stereo not drawn) [Example 132] | < 10 nM | 1250 nM | 
8 | O=[N+]([O-])c1ccc2c(c1Oc1ccc(-c3ccc(F)cc3)cc1)OCCC2OP(=O)(N1CC1)N1CC1 (stereo not drawn) [Example 133] |  | 1620 nM | 10 to 50 nM
9 | O=[N+]([O-])c1ccc2c(c1Oc1ccc(-c3ccccc3)cc1)OCCC2OP(=O)(N1CC1)N1CC1 (stereo not drawn) [Example 134] | 10 to 50 nM | 1510 nM | 
10 | O=[N+]([O-])c1ccc2c(c1Oc1ccc(-c3ccccc3)cc1)OCCC2OP(=O)(N1CC1)N1CC1 (stereo not drawn) [Example 135] |  | 482 nM | < 10 nM
11 | CNC(=O)c1ccc(Oc2c([N+](=O)[O-])ccc3c2OCCC3OP(=O)(N2CC2)N2CC2)cc1 (stereo not drawn) [Example 136] |  | 913 nM | 50 to 100 nM
12 | CNC(=O)c1ccc(Oc2c([N+](=O)[O-])ccc3c2OCCC3OP(=O)(N2CC2)N2CC2)cc1 (stereo not drawn) [Example 137] |  | 538 nM | < 10 nM
13 | O=[N+]([O-])c1cc2c(cc1Oc1ccc(-c3ccc(F)cn3)c(F)c1)C(OP(=O)(N1CC1)N1CC1)CC2 (stereo not drawn) [Example 142] | < 10 nM | 4130 nM | 
14 | O=[N+]([O-])c1cc2c(cc1Oc1ccc(-c3ccc(F)cn3)c(F)c1)C(OP(=O)(N1CC1)N1CC1)CC2 (stereo not drawn) [Example 143] |  | 1720 nM | < 10 nM
15 | O=[N+]([O-])c1cc2c(cc1Oc1ccc(-c3ccc(F)cc3)cc1)C(OP(=O)(N1CC1)N1CC1)CC2 (stereo not drawn) [Example 144] | < 10 nM | 347 nM | 
16 | O=[N+]([O-])c1cc2c(cc1Oc1ccc(-c3ccc(F)cc3)cc1)C(OP(=O)(N1CC1)N1CC1)CC2 (stereo not drawn) [Example 145] |  | 1120 nM | < 10 nM
17 | CN(C)C(=O)c1cccc(Oc2cc3c(cc2[N+](=O)[O-])CCC3OP(=O)(N2CC2)N2CC2)c1 (stereo not drawn) [Example 146] | < 10 nM | 453 nM | 
18 | CN(C)C(=O)c1cccc(Oc2cc3c(cc2[N+](=O)[O-])CCC3OP(=O)(N2CC2)N2CC2)c1 (stereo not drawn) [Example 147] |  | 311 nM | < 10 nM
19 | O=[N+]([O-])c1cc2c(cc1Oc1ccc(C3CC3)cc1)C(OP(=O)(N1CC1)N1CC1)CC2 (stereo not drawn) [Example 148] | < 10 nM | 955 nM | 
20 | O=[N+]([O-])c1cc2c(cc1Oc1ccc(C3CC3)cc1)C(OP(=O)(N1CC1)N1CC1)CC2 (stereo not drawn) [Example 149] |  | 372 nM | < 10 nM
21 | CN1Cc2cc(Oc3cc4c(cc3[N+](=O)[O-])CCC4OP(=O)(N3CC3)N3CC3)ccc2C1=O (stereo not drawn) [Example 154] | < 10 nM | 309 nM | 
22 | CN1Cc2cc(Oc3cc4c(cc3[N+](=O)[O-])CCC4OP(=O)(N3CC3)N3CC3)ccc2C1=O (stereo not drawn) [Example 155] |  | 128 nM | < 10 nM
23 | Cn1ccc2ccc(Oc3cc4c(cc3[N+](=O)[O-])CCC4OP(=O)(N3CC3)N3CC3)cc2c1=O (stereo not drawn) [Example 156] | 10 to 50 nM | 895 nM | 
24 | Cn1ccc2ccc(Oc3cc4c(cc3[N+](=O)[O-])CCC4OP(=O)(N3CC3)N3CC3)cc2c1=O (stereo not drawn) [Example 157] |  | 1240 nM | 10 to 50 nM
25 | CN1CCOc2ccc(Oc3cc4c(cc3[N+](=O)[O-])CCC4OP(=O)(N3CC3)N3CC3)cc2C1=O (stereo not drawn) [Example 158] | 50 to 100 nM | 4680 nM | 
26 | CN1CCOc2ccc(Oc3cc4c(cc3[N+](=O)[O-])CCC4OP(=O)(N3CC3)N3CC3)cc2C1=O (stereo not drawn) [Example 159] |  | > 10000 nM | ≥ 100 nM
27 | O=C(c1ccc(Oc2cc3c(cc2[N+](=O)[O-])CCC3OP(=O)(N2CC2)N2CC2)cc1)N1CCOCC1 (stereo not drawn) [Example 160] | < 10 nM | 270 nM | 

Row | SMILES | IC50 ([1]; Homo sapiens, NCI-H460, 72 h) | IC50 [2] | IC50 [1]
28 | O=C(c1ccc(Oc2cc3c(cc2[N+](=O)[O-])CCC3OP(=O)(N2CC2)N2CC2)cc1)N1CCOCC1 (stereo not drawn) [Example 161] |  | 339 nM | < 10 nM
29 | O=C1c2cc(Oc3cc4c(cc3[N+](=O)[O-])CCC4OP(=O)(N3CC3)N3CC3)ccc2CN1C1COC1 (stereo not drawn) [Example 162] | < 10 nM | 969 nM | 
30 | O=C1c2cc(Oc3cc4c(cc3[N+](=O)[O-])CCC4OP(=O)(N3CC3)N3CC3)ccc2CN1C1COC1 (stereo not drawn) [Example 163] |  | 1340 nM | < 10 nM
31 | O=C1OCCN1c1ccc(Oc2cc3c(cc2[N+](=O)[O-])CCC3OP(=O)(N2CC2)N2CC2)cc1 (stereo not drawn) [Example 164] | < 10 nM | 237 nM | 
32 | O=C1OCCN1c1ccc(Oc2cc3c(cc2[N+](=O)[O-])CCC3OP(=O)(N2CC2)N2CC2)cc1 (stereo not drawn) [Example 165] |  | 89.7 nM | < 10 nM
33 | CN1CCc2ccc(Oc3cc4c(cc3[N+](=O)[O-])CCC4OP(=O)(N3CC3)N3CC3)cc2C1=O (stereo not drawn) [Example 166] | 10 to 50 nM | 976 nM | 
34 | CN1CCc2ccc(Oc3cc4c(cc3[N+](=O)[O-])CCC4OP(=O)(N3CC3)N3CC3)cc2C1=O (stereo not drawn) [Example 167] |  | 3150 nM | 10 to 50 nM
35 | Cn1c(=O)oc2cc(Oc3cc4c(cc3[N+](=O)[O-])CCC4OP(=O)(N3CC3)N3CC3)ccc21 (stereo not drawn) [Example 174] | < 10 nM | 244 nM | 
36 | Cn1cc(-c2ccc(Oc3cc4c(cc3[N+](=O)[O-])CCC4OP(=O)(N3CC3)N3CC3)cc2)ccc1=O (stereo not drawn) [Example 178] | ≥ 100 nM | 1630 nM | 
37 | Cn1cc(-c2ccc(Oc3cc4c(cc3[N+](=O)[O-])CCC4OP(=O)(N3CC3)N3CC3)cc2)ccc1=O (stereo not drawn) [Example 179] |  | 1100 nM | ≥ 100 nM
38 | Cn1cc(-c2ccc(Oc3cc4c(cc3[N+](=O)[O-])CCC4OP(=O)(N3CC3)N3CC3)cc2)cn1 (stereo not drawn) [Example 180] | < 10 nM | 1950 nM | 
39 | Cn1cc(-c2ccc(Oc3cc4c(cc3[N+](=O)[O-])CCC4OP(=O)(N3CC3)N3CC3)cc2)cn1 (stereo not drawn) [Example 181] |  | 942 nM | < 10 nM
40 | O=[N+]([O-])c1cc2c(cc1Oc1ccc(-c3ccc(Cl)cc3)cc1)C(OP(=O)(N1CC1)N1CC1)CC2 (stereo not drawn) [Example 182] |  | > 10000 nM | ≥ 100 nM
41 | O=[N+]([O-])c1cc2c(cc1Oc1ccc(-c3ccc(Cl)cc3)cc1)C(OP(=O)(N1CC1)N1CC1)CC2 (stereo not drawn) [Example 183] |  | 1840 nM | 10 to 50 nM
42 | COc1ccc(-c2ccc(Oc3cc4c(cc3[N+](=O)[O-])CCC4OP(=O)(N3CC3)N3CC3)cc2)cc1 (stereo not drawn) [Example 184] | 10 to 50 nM | 2640 nM | 
43 | O=[N+]([O-])c1cc2c(cc1Oc1ccc(-c3cccnc3)cc1)C(OP(=O)(N1CC1)N1CC1)CC2 (stereo not drawn) [Example 187] | 10 to 50 nM | > 10000 nM | 
44 | O=C(NC1CCC1)c1ccc(Oc2cc3c(cc2[N+](=O)[O-])CCC3OP(=O)(N2CC2)N2CC2)cc1 (stereo not drawn) [Example 190] | < 10 nM | 984 nM | 
45 | O=C(NC1CCC1)c1ccc(Oc2cc3c(cc2[N+](=O)[O-])CCC3OP(=O)(N2CC2)N2CC2)cc1 (stereo not drawn) [Example 191] |  | 661 nM | < 10 nM
46 | O=[N+]([O-])c1cc2c(cc1Oc1ccc(-c3ccccc3)nc1)C(OP(=O)(N1CC1)N1CC1)CC2 (stereo not drawn) [Example 192] | < 10 nM | 1090 nM | 
47 | O=[N+]([O-])c1cc2c(cc1Oc1ccc(-c3ccccc3)nc1)C(OP(=O)(N1CC1)N1CC1)CC2 (stereo not drawn) [Example 193] |  | 880 nM | < 10 nM
48 | Cn1cnc2ccc(Oc3cc4c(cc3[N+](=O)[O-])CCC4OP(=O)(N3CC3)N3CC3)cc2c1=O (stereo not drawn) [Example 194] | 10 to 50 nM | 1290 nM | 
49 | Cn1cnc2ccc(Oc3cc4c(cc3[N+](=O)[O-])CCC4OP(=O)(N3CC3)N3CC3)cc2c1=O (stereo not drawn) [Example 195] |  | 4980 nM | 10 to 50 nM
50 | O=[N+]([O-])c1cc2c(cc1Oc1ccccc1-c1ccccc1)C(OP(=O)(N1CC1)N1CC1)CC2 (stereo not drawn) [Example 196] | ≥ 100 nM | 6370 nM | 
51 | O=[N+]([O-])c1cc2c(cc1Oc1ccccc1-c1ccccc1)C(OP(=O)(N1CC1)N1CC1)CC2 (stereo not drawn) [Example 197] |  | 1760 nM | ≥ 100 nM
52 | O=[N+]([O-])c1cc2c(cc1Oc1ccc(-c3ccncc3)cc1)C(OP(=O)(N1CC1)N1CC1)CC2 (stereo not drawn) [Example 198] | < 10 nM | 2230 nM | 
53 | CN1Cc2ccc(Oc3cc4c(cc3[N+](=O)[O-])OCCC4OP(=O)(N3CC3)N3CC3)cc2C1=O (stereo not drawn) [Example 199, 6-((2-methyl-3-oxoisoindolin-5-yl)oxy)-7-nitrochroman-4-yl di(aziridin-1-yl)phosphinate] | < 10 nM | 416 nM | 
54 | CN1CCc2ccc(Oc3cc4c(cc3[N+](=O)[O-])OCCC4OP(=O)(N3CC3)N3CC3)cc2C1=O (stereo not drawn) [Example 200] | 10 to 50 nM | 434 nM | 

Reference: patent US20260167656A1, “PHOSPHORAMIDATE COMPOUNDS AND USES THEREOF” (ALLORION THERAPEUTICS INC, priority 2022, published 2026)
